From patent US6951651B2, “CTL epitope analogs” (priority 1999, dated 2005)
Where two headings read alike, the source gives them in different places. Ends that are not written are not given here.

Key:
[1] = system: T cell clone 3-3F4; assay: Flow-cytometric HLA A2-Ig dimer binding to T cell clone 3-3F4; design: species or system human; conditions: specific fluorescence, peptide-loaded HLA A2-Ig dimers
Procedure: HLA A2-Ig dimer aliquots were individually loaded with a series of peptides, and incubated with two different T cell clones, 3-3F4 and VB57. The soluble HLA-A2-Ig complexes (HLA dimers) were loaded with peptide according to the methods of Greten et al., Proc. Natl. Acad. Sci. USA 95:7568-7573 (1998). For each peptide analog to be tested, 10 μg of HLA dimers in 10 μl PBS containing 0.02% NaN3 (Baker Chemical™, Phillipsburg, N.J.) was incubated for three days at 4° C. with 660-fold molar excess peptide. Dimers also were loaded with the pp65495-503 native peptide, an irrelevant peptide (pp54 B*0702 epitope), and 2 μl PBS buffer containing 0.02% NaN3, in all experiments to serve as controls. One microgram aliquots of peptide loaded dimers were mixed with 0.2 million of either T cell clone 3-3F4 or VB57 for 75 minutes on ice. Cells were washed in PBS containing 2% FBS and 0.02% NaN3 (WB), and subsequently stained with 0.9 μl/sample of goat anti-mouse IgG1-PE (Caltag™, Burlingame, Calif.). After two additional washings in WB, cells were analyzed by fluorescence-activated cell sorting (FACSCalibur™). Specific fluorescence was calculated as fluorescence ratio between the mean fluorescence of the peptide-loaded diners and the mean fluorescence of the buffer-loaded control diners. Peptides names ending in N are amidated, while those ending in C are free acids. Each peptide-loaded diner complex was tested at least twice with two different T cell clones (3-3F4 and VB57). The fluorescence indices indicated in the Figure are an average of both experiments.

[2] = system: T cell clone 3-3F4; assay: PS-SCL screen and simultaneous native peptide titration, T2 cells, T cell clone 3-3F4; format: cell-based, human; conditions: E:T 5, read-out: concentration sensitizing 50% maximal lysis of T2 cells by 3-3F4
Procedure: Chromium release assays were performed according to the methods of (20). Briefly, target cell lines (antigen presenting cells which present pp65495-503) were labeled for one hour with 200 μCi/ml ^51Cr (ICN™, Costa Mesa, Calif.). HCMV infected targets were prepared as follows. Five-hundred thousand fibroblasts were pretreated with 800 U/10^6 recombinant IFN-γ, (Preprotech™, Rocky Hill, N.J.) to upregulate MHC class I expression and HCMV was added at an m.o.i. of 4. Cells were incubated with virus for two hours at 37° C., in a 5% CO2 incubator. Fresh FBM containing IFN-γ was then added and the cells incubated for an additional 14 hours. Infected fibroblasts were trypsinized, labeled with ^51Cr as described above and used in the assay at an effector-to-target ratio (E/T) of 50 and 10. […]
In the assay, loaded targets and effectors were mixed in culture and incubated for four hours, at which time chromium release was measured. Supernatants were collected on filter frames (Skatron™, Oslo, Norway) and radioactivity determined in a Cobra II gamma counter (Packard™, Meriden, Conn.). For each assay, spontaneous release from the target cells in the absence of effector CTL and maximum possible release after treatment with 2% SDS (Baker Chemicals™, Phillipsburg, N.J.) was determined. […]

[3] = system: T cell clone 3-3F4; assay: Chromium release assay, peptide-sensitized targets lysed by T cell clone 3-3F4; format: cell-based, human; conditions: for Conc. (nM): concentration of peptide in which specific killing was between 15 and 30 percent: HLA A*0201-restricted EBVLCL targets, 3-3F4 effectors, E:T=5, 10-fold dilutions 500-0.00005 nM; for recognition by T cell clone 3-3F4 (in words): chromium release assay; for Peptide Concentration (nM), Amide, 3-3F4: carboxyl terminal amide peptide, chromium release, T cell clone 3-3F4
Procedure: Nonamer peptides with the substitutions as shown at each position were synthesized as described in Example 1. […] Results of these assays are shown in the right-hand column of Table II, in terms of concentration of peptide (nM) in which specific killing was between 15 and 30 percent. Results presented are the average from at least three independent experiments carried out on different days using different batches of T cell […]. Peptides were tested using 10-fold dilutions, ranging from 500-0.00005 nM.
(§1) To take advantage of the increased immunogenicity of peptides 44 and 46, while maintaining the universal recognition of the native peptide, library-directed changes were made to peptides 44 and 46, substituting back the native amino acids. A series of 21 peptides were constructed based upon the sequence of the tetra-substituted peptides 44 and 46 in each of the carboxyl terminal amidated and free acid forms. The peptides contained single, double, or triple substitutions of amino acids of the native sequence at the positions indicated. These peptides were assayed utilizing a standard chromium release assay with the screening T cell clone, 3-3F4, and a representative T cell clone (VB57) from another individual expressing a different T cell receptor.

[4] = system: T cell clones from HLA A*0201 individuals seropositive for HCMV; conditions: for T cell clones giving greater specific cytotoxicity at a lower concentration than the native sequence: five T cell clones, EBVLCL targets sensitized at 5.0 or 0.5 nM; for recognition by T cell clones other than 3-3F4: four additional T cell clones from different HCMV-seropositive volunteers, up to 5 nM
Procedure: Chromium release assays were performed according to the methods of (20). Briefly, target cell lines (antigen presenting cells which present pp65495-503) were labeled for one hour with 200 μCi/ml ^51Cr (ICN™, Costa Mesa, Calif.). HCMV infected targets were prepared as follows. Five-hundred thousand fibroblasts were pretreated with 800 U/10^6 recombinant IFN-γ, (Preprotech™, Rocky Hill, N.J.) to upregulate MHC class I expression and HCMV was added at an m.o.i. of 4. Cells were incubated with virus for two hours at 37° C., in a 5% CO2 incubator. Fresh FBM containing IFN-γ was then added and the cells incubated for an additional 14 hours. Infected fibroblasts were trypsinized, labeled with ^51Cr as described above and used in the assay at an effector-to-target ratio (E/T) of 50 and 10. Epstein-Barr virus transformed B cell lines (EBVLCL) were generated following standard technology using the supernatant of EBV-infected marmoset cells. EBVLCL were grown in medium consisting of RPMI-1640 (Gibco™, Rockville, Md.) supplemented with 10% FBS, 10 mM Hepes Buffer Solution (Irvine Scientific™, Santa Ana, Calif.), penicillin, streptomycin and L-glutamine as described for fibroblast medium. The cells used as targets were prepared by pulsing with […] pp65495-503 peptide, and used at an E/T of 25 and 5. For PS-SCL screening and titration of analog peptides, T2 cells, maintained as described in Diamond et al., Blood 90:1751-1767 (1997), were pulsed with serial peptide dilutions for use as targets for T cell clone effectors at an E/T of 5.
In the assay, loaded targets and effectors were mixed in culture and incubated for four hours, at which time chromium release was measured. Supernatants were collected on filter frames (Skatron™, Oslo, Norway) and radioactivity determined in a Cobra II gamma counter (Packard™, Meriden, Conn.). For each assay, spontaneous release from the target cells in the absence of effector CTL and maximum possible release after treatment with 2% SDS (Baker Chemicals™, Phillipsburg, N.J.) was determined. Specific cytotoxicity was defined as: 100×[(Re−Rs)/Max−Rs)], where Re=experimental release, and Rs=spontaneous release.
The T cell clones were stimulated in vitro with the native sequence of pp65495-503 (SEQ ID NO:1) as described in Example 2.

[5] = system: peripheral blood CTL of HCMV-seropositive HLA A*0201 donors; format: cell-based, human; conditions: amidated peptides
Procedure: Sixteen to twenty-four million of the ficoll-separated peripheral blood mononuclear cells were incubated 2-3 hours at 37° C. in a 5% CO2 incubator with 100 μM HCMV PP65495-503 peptide (SEQ ID NO: 1) in a volume of 100 μl of T cell culture medium (IVSTCM). IVSTCM consists of RPMI-1640 supplemented with 20% heat inactivated HAB serum, 10 IU/ml r-IL2 (Chiron™, Emeryville, Calif.); 25 mM Hepes Buffer Solution, 50 U/ml penicillin, 50 μg/ml streptomycin, 2 mM L-glutamine and 0.5 mM sodium pyruvate (Gibco™, Rockville, Md.). […] After the incubation period, the cells, now presenting pp65495-503 were resuspended in 2 ml IVSTCM, and γ-irradiated (2,400 rads) using the Isomedic Model 19 Gammator (Nuclear Canada, Parsippany, N.J.).
During the peptide incorporation procedure, an additional aliquot of 10-20 million cells from the same freshly separated peripheral blood mononuclear cells was depleted of CD4^+, CD16^+ and CD56^+ cells as follows. […] The resulting population was >80% CD8^+ as determined using a FAGSCalbur™ fluorescence activated cell sorter (BD Immunocytomeyry Systems™, Palo Alto, Calif.). […]
Peripheral blood from separate individuals was stimulated with peptides 115, 118, and 193 and subjected to a chromium release assay. […] Lymphocytes from three individuals were used for all four peptides, including SEQ ID NO:1, and one individual was evaluated with 193 peptide and the positive control.

[6] = biological target: T1, HLA A*0201 (Homo sapiens, UniProt P04439, D140Y/D185E/D98H/E176V/E277Q/G131W/G231S/I119V/I121R/I166T/I218V/L300P/L318F/N151K/N90K/P208A/P217A/Q86G/Q94H/R138H/R169H/T345S); assay: T2 assembly assay (MHC binding affinity); conditions: for difference between acid and amide forms in binding to HLA A*0201: T2 assembly assay; for MHC affinity (fluorescence ratio) by T2 assembly assay: T2 cells, 100 μM peptide overnight, mAb BB7.2
T1 construct: endogenous in cells; host or cells: T2 cells (TAP-deficient); β2-microglobulin purchased from Sigma, catalogue number not given
Procedure: See the methods of Nijman et al., Eur. J. Immunol. 23:1215-1219 (1993).
For each analog to be tested, 250,000 T2 cells were washed twice and resuspended in serum free IMDM and incubated overnight with 100 μM peptide together with 15 μg/ml human β2-microglobulin (Sigma™, Lt. Louis, Mo.) at 37° C. in a 5% CO2 incubator. […] After washing twice with cold buffer, FITC-conjugated rat anti-mouse IgG2a/2b (1:40 dilution; Pharmingen™, San Diego, Calif.) was added and incubated for another 30 minutes at 4° C. The cells were washed twice in cold buffer, and mean fluorescence intensity (MFI) of 10^4 gated cells was measured using a FACSCalibur™.
Fluorescence ratio is defined as mean fluorescence with peptide/mean fluorescence without peptide. Results for the amidated peptides indicate only slight changes in MHC binding.

[7] = system: T cell clone VB57; assay: Chromium release assay, peptide-sensitized targets lysed by T cell clone VB57; format: cell-based, human; conditions: carboxyl terminal amide peptide
Description: as §1

Substance: NLVPMVATV [Peptide A7C, reference compound]
- HLA-Ig dimer binding to T cell clone 3-3F4 [1]: bound well
- EC50 [2]: 0.02 nM
- Conc. (nM): concentration of peptide in which specific killing was between 15 and 30 percent [3]: 0.5 nM

Substance: YLVPMVASV-NH2 [Peptide 115N]
- T cell clones giving greater specific cytotoxicity at a lower concentration than the native sequence [4]: two out of five

Substance: NLLPMVASV-NH2 [Peptide 118N]
- T cell clones giving greater specific cytotoxicity at a lower concentration than the native sequence [4]: three out of five

Substance: YLLPMVTSV-NH2 [Peptide 46N]
- HLA-Ig dimer binding to T cell clone 3-3F4 [1]: poor binders
- recognition by T cell clones other than 3-3F4 [4]: No T cell clone other than 3-3F4 recognized
- recognition by T cell clones other than 3-3F4 ([4]; listed as 46): not recognized by any of the T cell clones in the cohort
- Conc. (nM): concentration of peptide in which specific killing was between 15 and 30 percent [3]: 0.0005 nM
- recognition by T cell clone 3-3F4 (in words) [3]: better recognized than the native epitope sequence
- recognition by individuals' peripheral blood T cells after in vitro stimulation with the peptide [5]: only T cells from the individual from whom the PS-SCL screen clone was derived showed any positive response
- difference between acid and amide forms in binding to HLA A*0201 [6]: substantial binding differences
- MHC affinity (fluorescence ratio) by T2 assembly assay [6]: not dramatically different from the native sequence

Substance: YLLPMVVSV-NH2 [Peptide 44N]
- HLA-Ig dimer binding to T cell clone 3-3F4 [1]: poor binders
- recognition by T cell clones other than 3-3F4 [4]: No T cell clone other than 3-3F4 recognized
- recognition by T cell clones other than 3-3F4 ([4]; listed as 44): not recognized by any of the T cell clones in the cohort
- Conc. (nM): concentration of peptide in which specific killing was between 15 and 30 percent [3]: 0.00005 nM
- recognition by T cell clone 3-3F4 (in words) [3]: better recognized than the native epitope sequence
- recognition by individuals' peripheral blood T cells after in vitro stimulation with the peptide [5]: only T cells from the individual from whom the PS-SCL screen clone was derived showed any positive response
- difference between acid and amide forms in binding to HLA A*0201 [6]: substantial binding differences
- MHC affinity (fluorescence ratio) by T2 assembly assay [6]: not dramatically different from the native sequence

Substance: YLVPMVATV-NH2 [Peptide 193N]
- T cell clones giving greater specific cytotoxicity at a lower concentration than the native sequence [4]: two out of five

Substance: 127N: nonamer NLLPMVTSV amide, SEQ ID NO 67 (NLLPMVTSV-NH2) [Peptide 127N]
- Peptide Concentration (nM), Amide, 3-3F4 [3]: 0.05 nM
- Peptide Concentration (nM), Amide, VB57 [7]: >5 nM

Substance: 125N: nonamer YLVPMVTSV amide, SEQ ID NO 71 (YLVPMVTSV-NH2) [Peptide 125N]
- Peptide Concentration (nM), Amide, 3-3F4 [3]: 0.05 nM
- Peptide Concentration (nM), Amide, VB57 [7]: >5 nM
